Assay results taken from US20100099561A1, “HETEROBICYCLIC ALKYLTHIO-BRIDGED ISOXAZOLINES” (E.I. DU PONT DE NEMOURS AND COMPANY, priority 2008, published 2010).

How the values were obtained:
Assay type in all cases: in vivo
Details in all cases: 21 days, scale 0 to 100
[1] = system: spring barley (Hordeum vulgare); test: Test C preemergence, spring barley
Source text: (§1) Seeds of plant species selected from annual bluegrass (Poa annua), blackgrass (Alopecurus myosuroides), canarygrass (Phalaris minor), gallium, (catchweed bedstraw, Galium aparine), chickweed (Stellaria media), downy bromegrass (Bromus tectorum), field poppy (Papaver rhoeas), field violet (Viola arvensis), green foxtail (Setaria viridis), deadnettle (henbit deadnettle, Lamium amplexicaule), Italian ryegrass (Lolium multiflorum), kochia (Kochia scoparia), lambsquarters (Chenopodium album), oilseed rape (Brassica napus), pigweed (Amaranthus retroflexus), Russian thistle (Salsola kali), spring barley (Hordeum vulgare), spring wheat (Triticum aestivum), wild buckwheat (Polygonum convolvulus), wild mustard (Sinapis arvensis), wild oat (Avena fatua), wild radish (Raphanus raphanistrum), windgrass (Apera spica-venti), winter barley (Hordeum vulgare), and winter wheat (Triticum aestivum) were planted and treated preemergence with test chemicals formulated in a non-phytotoxic solvent mixture which included a surfactant.
(§2) Treated plants and controls were maintained in a controlled growth environment for 21 days after which time all species were compared to controls and visually evaluated. Plant response ratings, summarized in Table C, are based on a scale of 0 to 100 where 0 is no effect and 100 is complete control. A dash (-) response means no test result.

[2] = system: blackgrass (Alopecurus myosuroides); test: Test C preemergence, blackgrass
Source text: as §1, §2

[3] = system: annual bluegrass (Poa annua); test: Test C preemergence, annual bluegrass
Source text: as §1, §2

[4] = system: downy bromegrass (Bromus tectorum); test: Test C preemergence, downy bromegrass
Source text: as §1, §2

[5] = system: wild buckwheat (Polygonum convolvulus); test: Test C preemergence, wild buckwheat
Source text: as §1, §2

[6] = system: canarygrass (Phalaris minor); test: Test C preemergence, canarygrass
Source text: as §1, §2

[7] = system: deadnettle (henbit deadnettle, Lamium amplexicaule); test: Test C preemergence, deadnettle
Source text: as §1, §2

[8] = system: field poppy (Papaver rhoeas); test: Test C preemergence, field poppy
Source text: as §1, §2

[9] = system: field violet (Viola arvensis); test: Test C preemergence, field violet
Source text: as §1, §2

[10] = system: green foxtail (Setaria viridis); test: Test C preemergence, green foxtail
Source text: as §1, §2

[11] = system: gallium, (catchweed bedstraw, Galium aparine); test: Test C preemergence, galium
Source text: as §1, §2

kochia (Kochia scoparia) = test: Test C preemergence, kochia
Source text: as §1, §2

[12] = system: lambsquarters (Chenopodium album); test: Test C preemergence, lambsquarters
Source text: as §1, §2

[13] = system: pigweed (Amaranthus retroflexus); test: Test C preemergence, pigweed
Source text: as §1, §2

[14] = system: wild radish (Raphanus raphanistrum); test: Test C preemergence, wild radish
Source text: as §1, §2

[15] = system: Italian ryegrass (Lolium multiflorum); test: Test C preemergence, Italian ryegrass
Source text: as §1, §2

[16] = system: spring wheat (Triticum aestivum); test: Test C preemergence, spring wheat
Source text: as §1, §2

[17] = system: windgrass (Apera spica-venti); test: Test C preemergence, windgrass
Source text: as §1, §2

Compound: CC1(C)CC(S(=O)(=O)Cc2c(C(F)(F)F)nc3n(c2=O)CCS3)=NO1 [Compound 6]
- Plant response rating, Barley, Spring ([1]; 31 g ai/ha): 20
- Plant response rating, Barley, Spring ([1]; 62 g ai/ha): 20
- Plant response rating, Barley, Spring ([1]; 125 g ai/ha): 20
- Plant response rating, Barley, Spring ([1]; 250 g ai/ha): 20
- Plant response rating, Blackgrass ([2]; 125 g ai/ha): 98
- Plant response rating, Bluegrass ([3]; 31 g ai/ha): 20
- Plant response rating, Bluegrass ([3]; 62 g ai/ha): 20
- Plant response rating, Bluegrass ([3]; 125 g ai/ha): 20
- Plant response rating, Bluegrass ([3]; 250 g ai/ha): 90
- Plant response rating, Bromegrass, Downy ([4]; 31 g ai/ha): 0
- Plant response rating, Bromegrass, Downy ([4]; 62 g ai/ha): 0
- Plant response rating, Bromegrass, Downy ([4]; 125 g ai/ha): 25
- Plant response rating, Bromegrass, Downy ([4]; 250 g ai/ha): 35
- Plant response rating, Buckwheat, Wild ([5]; 31 g ai/ha): 0
- Plant response rating, Buckwheat, Wild ([5]; 62 g ai/ha): 0
- Plant response rating, Buckwheat, Wild ([5]; 125 g ai/ha): 0
- Plant response rating, Buckwheat, Wild ([5]; 250 g ai/ha): 0
- Plant response rating, Canarygrass ([6]; 125 g ai/ha): 35
- Plant response rating, Deadnettle ([7]; 31 g ai/ha): 0
- Plant response rating, Deadnettle ([7]; 62 g ai/ha): 0
- Plant response rating, Deadnettle ([7]; 125 g ai/ha): 0
- Plant response rating, Deadnettle ([7]; 250 g ai/ha): 0
- Plant response rating, Field Poppy ([8]; 31 g ai/ha): 40
- Plant response rating, Field Poppy ([8]; 62 g ai/ha): 50
- Plant response rating, Field Poppy ([8]; 125 g ai/ha): 90
- Plant response rating, Field Poppy ([8]; 250 g ai/ha): 100
- Plant response rating, Field Violet ([9]; 31 g ai/ha): 0
- Plant response rating, Field Violet ([9]; 62 g ai/ha): 0
- Plant response rating, Field Violet ([9]; 125 g ai/ha): 0
- Plant response rating, Field Violet ([9]; 250 g ai/ha): 0
- Plant response rating, Foxtail, Green ([10]; 125 g ai/ha): 20
- Plant response rating, Galium ([11]; 31 g ai/ha): 0
- Plant response rating, Galium ([11]; 62 g ai/ha): 0
- Plant response rating, Galium ([11]; 125 g ai/ha): 0
- Plant response rating, Galium ([11]; 250 g ai/ha): 0
- Plant response rating, Kochia (kochia (Kochia scoparia); 31 g ai/ha): 0
- Plant response rating, Kochia (kochia (Kochia scoparia); 62 g ai/ha): 0
- Plant response rating, Kochia (kochia (Kochia scoparia); 125 g ai/ha): 0
- Plant response rating, Kochia (kochia (Kochia scoparia); 250 g ai/ha): 0
- Plant response rating, Lambsquarters ([12]; 31 g ai/ha): 0
- Plant response rating, Lambsquarters ([12]; 62 g ai/ha): 0
- Plant response rating, Lambsquarters ([12]; 125 g ai/ha): 0
- Plant response rating, Lambsquarters ([12]; 250 g ai/ha): 35
- Plant response rating, Pigweed ([13]; 31 g ai/ha): 0
- Plant response rating, Pigweed ([13]; 62 g ai/ha): 0
- Plant response rating, Pigweed ([13]; 125 g ai/ha): 0
- Plant response rating, Pigweed ([13]; 250 g ai/ha): 100
- Plant response rating, Radish, Wild ([14]; 31 g ai/ha): 0
- Plant response rating, Radish, Wild ([14]; 62 g ai/ha): 0
- Plant response rating, Radish, Wild ([14]; 125 g ai/ha): 0
- Plant response rating, Radish, Wild ([14]; 250 g ai/ha): 0
- Plant response rating, Ryegrass, Italian ([15]; 31 g ai/ha): 0
- Plant response rating, Ryegrass, Italian ([15]; 62 g ai/ha): 15
- Plant response rating, Ryegrass, Italian ([15]; 125 g ai/ha): 15
- Plant response rating, Ryegrass, Italian ([15]; 250 g ai/ha): 95
- Plant response rating, Wheat, Spring ([16]; 31 g ai/ha): 0
- Plant response rating, Wheat, Spring ([16]; 62 g ai/ha): 0
- Plant response rating, Wheat, Spring ([16]; 125 g ai/ha): 0
- Plant response rating, Wheat, Spring ([16]; 250 g ai/ha): 15
- Plant response rating, Windgrass ([17]; 125 g ai/ha): 20

Compound: CC1(C)CC(S(=O)(=O)Cc2c(C(F)(F)F)nc3n(c2=O)CCCC3)=NO1 [Compound 8, 3-[[(4,5-dihydro-5,5-dimethyl-3-isoxazolyl)sulfonyl]methyl]-6,7,8,9-tetrahydro-2-(trifluoromethyl)-4H-pyrido[1,2-α]pyrimidin-4-one]
- Plant response rating, Barley, Spring ([1]; 16 g ai/ha): 0
- Plant response rating, Barley, Spring ([1]; 31 g ai/ha): 0
- Plant response rating, Barley, Spring ([1]; 62 g ai/ha): 0
- Plant response rating, Barley, Spring ([1]; 125 g ai/ha): 0
- Plant response rating, Blackgrass ([2]; 16 g ai/ha): 0
- Plant response rating, Blackgrass ([2]; 31 g ai/ha): 0
- Plant response rating, Blackgrass ([2]; 62 g ai/ha): 20
- Plant response rating, Blackgrass ([2]; 125 g ai/ha): 35
- Plant response rating, Bluegrass ([3]; 16 g ai/ha): 0
- Plant response rating, Bluegrass ([3]; 31 g ai/ha): 0
- Plant response rating, Bluegrass ([3]; 62 g ai/ha): 0
- Plant response rating, Bluegrass ([3]; 125 g ai/ha): 0
- Plant response rating, Bromegrass, Downy ([4]; 16 g ai/ha): 0
- Plant response rating, Bromegrass, Downy ([4]; 31 g ai/ha): 0
- Plant response rating, Bromegrass, Downy ([4]; 62 g ai/ha): 0
- Plant response rating, Bromegrass, Downy ([4]; 125 g ai/ha): 0
- Plant response rating, Buckwheat, Wild ([5]; 16 g ai/ha): 0
- Plant response rating, Buckwheat, Wild ([5]; 31 g ai/ha): 0
- Plant response rating, Buckwheat, Wild ([5]; 62 g ai/ha): 0
- Plant response rating, Canarygrass ([6]; 16 g ai/ha): 0
- Plant response rating, Canarygrass ([6]; 31 g ai/ha): 0
- Plant response rating, Canarygrass ([6]; 62 g ai/ha): 0
- Plant response rating, Canarygrass ([6]; 125 g ai/ha): 20
- Plant response rating, Deadnettle ([7]; 16 g ai/ha): 0
- Plant response rating, Deadnettle ([7]; 31 g ai/ha): 0
- Plant response rating, Deadnettle ([7]; 62 g ai/ha): 0
- Plant response rating, Deadnettle ([7]; 125 g ai/ha): 0
- Plant response rating, Field Poppy ([8]; 16 g ai/ha): 0
- Plant response rating, Field Poppy ([8]; 31 g ai/ha): 0
- Plant response rating, Field Poppy ([8]; 62 g ai/ha): 50
- Plant response rating, Field Poppy ([8]; 125 g ai/ha): 75
- Plant response rating, Field Violet ([9]; 16 g ai/ha): 0
- Plant response rating, Field Violet ([9]; 31 g ai/ha): 0
- Plant response rating, Field Violet ([9]; 62 g ai/ha): 0
- Plant response rating, Field Violet ([9]; 125 g ai/ha): 90
- Plant response rating, Foxtail, Green ([10]; 16 g ai/ha): 0
- Plant response rating, Foxtail, Green ([10]; 31 g ai/ha): 0
- Plant response rating, Foxtail, Green ([10]; 62 g ai/ha): 15
- Plant response rating, Foxtail, Green ([10]; 125 g ai/ha): 60
- Plant response rating, Galium ([11]; 16 g ai/ha): 0
- Plant response rating, Galium ([11]; 31 g ai/ha): 0
- Plant response rating, Galium ([11]; 62 g ai/ha): 0
- Plant response rating, Galium ([11]; 125 g ai/ha): 0
- Plant response rating, Kochia (kochia (Kochia scoparia); 16 g ai/ha): 0
- Plant response rating, Kochia (kochia (Kochia scoparia); 31 g ai/ha): 0
- Plant response rating, Kochia (kochia (Kochia scoparia); 62 g ai/ha): 0
- Plant response rating, Kochia (kochia (Kochia scoparia); 125 g ai/ha): 0
- Plant response rating, Lambsquarters ([12]; 16 g ai/ha): 0
- Plant response rating, Lambsquarters ([12]; 31 g ai/ha): 0
- Plant response rating, Lambsquarters ([12]; 62 g ai/ha): 0
- Plant response rating, Lambsquarters ([12]; 125 g ai/ha): 0
- Plant response rating, Pigweed ([13]; 16 g ai/ha): 0
- Plant response rating, Pigweed ([13]; 31 g ai/ha): 0
- Plant response rating, Pigweed ([13]; 62 g ai/ha): 0
- Plant response rating, Pigweed ([13]; 125 g ai/ha): 0
- Plant response rating, Ryegrass, Italian ([15]; 16 g ai/ha): 0
- Plant response rating, Ryegrass, Italian ([15]; 31 g ai/ha): 0
- Plant response rating, Ryegrass, Italian ([15]; 62 g ai/ha): 0
- Plant response rating, Ryegrass, Italian ([15]; 125 g ai/ha): 0
- Plant response rating, Wheat, Spring ([16]; 16 g ai/ha): 0
- Plant response rating, Wheat, Spring ([16]; 31 g ai/ha): 0
- Plant response rating, Wheat, Spring ([16]; 62 g ai/ha): 0
- Plant response rating, Wheat, Spring ([16]; 125 g ai/ha): 0
- Plant response rating, Windgrass ([17]; 16 g ai/ha): 0
- Plant response rating, Windgrass ([17]; 31 g ai/ha): 0
- Plant response rating, Windgrass ([17]; 62 g ai/ha): 35
- Plant response rating, Windgrass ([17]; 125 g ai/ha): 90
